One assay deals with PDE4D3 (Homo sapiens (Human), UniProt Q08499). Put plainly: Diaxonhit phosphodiesterase assay (TR-FRET, LANCE cAMP kit), PDE4D3. It counts as biochemical. The source says: (§1) Diaxonhit Phosphodiesterase Assay (PDE10A and PDE4D3)
The PDE assay is based on the homogenous time-resolved fluorescence resonance energy transfer (TR-FRET) technology (LANCE® from Perkin Elmer). This competition based assay is formatted using a cAMP specific antibody labeled with the dye, Alexa Fluor® 647, biotin-cAMP and streptavidin labeled with Europium (Eu-SA). As the complex of Eu-SA/biotin-cAMP/Alexa Fluor 647 labeled antibody is formed, an increase in signal is generated. When there is PDE activity, resulting in the degradation of the cyclic nucleotide, the complex is not formed and a decrease in signal is observed.
The phosphodiesterase assay was developed using the LANCE® cAMP kit (PerkinElmer). The assay buffer contained HBSS with 5 mM HEPES, 0.1% BSA, and 1.5 mM MgCl2, pH 7.4. PDE10A (BPS Bioscience) was used at 200 pg/well (with a specific activity of 3200 pmole/min/μg with assay conditions: 10 mM Tris-HCl, pH 7.4, 10 mM MgCl2, 1 mM MnCl2, 200 μM cAMP, 2.5 kU 5′ nucleotidase, 37° C., 20 min) and PDE4D3 (BPS Bioscience) was used at 100 pg/well (with a specific activity of 32713 pmole/min/μg with assay conditions: 10 mM Tris-HCl, pH 7.4, 10 mM MgCl2, 1 mM MnCl2, 200 μM cAMP, 2.5 kU 5′ nucleotidase, 37° C., 20 min). The Biotin-cAMP tracer, supplied in 10 mmol/L Tris-HCl buffered (pH 8.0) salt solution with 1 mmol/L ethylenediaminetetraacetic acid (EDTA), 0.1% bovine serum albumin (BSA), and 0.05% sodium azide, is used at a dilution of 1/375. The assay detection mixture contained the LANCE Eu-W8044 labeled streptavidin 1/2250 (supplied in 50 mmol/L Tris-HCl buffered (pH 7.8) salt solution with 0.9% sodium chloride (NaCl), 0.1% BSA, and 0.05% sodium azide) and the Alexa Fluor® 647-anti cAMP antibody 1/200 (supplied in 50 mmol/L Tris-HCl buffered (pH 7.8) salt solution with 0.9% NaCl, 0.1% BSA, and 0.05% sodium azide). Chemical compounds were dissolved in DMSO (final concentration 2% (v/v)).
(§2) In a 384-well plate, 2 μL of the inhibitor and 3 μL PDE were added to the well, followed by the addition of 5 μl substrate biotinylated cAMP (1:5). After 60 min incubation at room temperature, 10 μL of assay detection mixture was added to the assay plate. After 1 h at room temperature, the signal was measured on EnVision™ (Perkin Elmer).
On the technique in general: TR-FRET usually uses a lanthanide donor and a delayed reading to cut background.

Another assay addresses PDE10A (Homo sapiens, UniProt Q9Y233). Nature of the assay: Diaxonhit phosphodiesterase assay (TR-FRET, LANCE cAMP kit), PDE10A. It counts as biochemical. How it is done:
as §1
The PDE assay is based on the homogenous time-resolved fluorescence resonance energy transfer (TR-FRET) technology (LANCE® from Perkin Elmer). […] When there is PDE activity, resulting in the degradation of the cyclic nucleotide, the complex is not formed and a decrease in signal is observed.
The phosphodiesterase assay was developed using the LANCE® cAMP kit (PerkinElmer). The assay buffer contained HBSS with 5 mM HEPES, 0.1% BSA, and 1.5 mM MgCl2, pH 7.4. […] Chemical compounds were dissolved in DMSO (final concentration 2% (v/v)).
as §2

Where a name gives a salt, the structure may show the parent alone.

The values below come from patent publication US9200016B2, “Substituted 6, 7-dialkoxy-3-isoquinoline derivatives as inhibitors of phosphodiesterase 10 (PDE 10A)” (Allergan, Inc., priority 2013, dated 2015).

PDE10A, sequence (Q9Y233 whole entry, looked up): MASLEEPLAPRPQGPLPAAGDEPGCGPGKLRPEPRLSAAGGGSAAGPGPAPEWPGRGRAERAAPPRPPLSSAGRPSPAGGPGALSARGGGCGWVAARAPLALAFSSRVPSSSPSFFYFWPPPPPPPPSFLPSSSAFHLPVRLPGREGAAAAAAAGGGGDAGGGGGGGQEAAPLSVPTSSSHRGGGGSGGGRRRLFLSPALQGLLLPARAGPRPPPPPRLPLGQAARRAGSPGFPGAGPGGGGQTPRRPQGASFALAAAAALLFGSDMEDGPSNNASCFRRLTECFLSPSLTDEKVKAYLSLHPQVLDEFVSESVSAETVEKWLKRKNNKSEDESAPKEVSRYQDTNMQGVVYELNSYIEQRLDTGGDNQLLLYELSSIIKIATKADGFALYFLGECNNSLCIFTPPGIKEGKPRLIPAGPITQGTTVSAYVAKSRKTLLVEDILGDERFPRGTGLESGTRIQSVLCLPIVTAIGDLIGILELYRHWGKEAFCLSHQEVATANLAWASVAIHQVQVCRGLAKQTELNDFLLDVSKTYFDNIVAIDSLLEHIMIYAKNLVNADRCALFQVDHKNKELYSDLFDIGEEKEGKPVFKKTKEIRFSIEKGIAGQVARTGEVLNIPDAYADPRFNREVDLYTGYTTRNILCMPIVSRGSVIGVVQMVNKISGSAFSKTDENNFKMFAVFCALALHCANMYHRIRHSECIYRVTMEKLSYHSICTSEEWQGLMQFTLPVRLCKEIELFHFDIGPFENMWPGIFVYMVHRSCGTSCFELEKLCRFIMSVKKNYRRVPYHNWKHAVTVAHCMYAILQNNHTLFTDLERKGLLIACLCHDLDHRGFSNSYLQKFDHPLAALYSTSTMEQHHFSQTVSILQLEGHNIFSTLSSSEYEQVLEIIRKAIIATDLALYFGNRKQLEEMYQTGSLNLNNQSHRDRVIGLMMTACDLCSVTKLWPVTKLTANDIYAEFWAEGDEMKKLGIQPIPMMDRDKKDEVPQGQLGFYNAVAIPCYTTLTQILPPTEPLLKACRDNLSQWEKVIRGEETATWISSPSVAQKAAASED
PDE4D3, sequence (Q08499 other isoform, or with tags, fused parts or gaps): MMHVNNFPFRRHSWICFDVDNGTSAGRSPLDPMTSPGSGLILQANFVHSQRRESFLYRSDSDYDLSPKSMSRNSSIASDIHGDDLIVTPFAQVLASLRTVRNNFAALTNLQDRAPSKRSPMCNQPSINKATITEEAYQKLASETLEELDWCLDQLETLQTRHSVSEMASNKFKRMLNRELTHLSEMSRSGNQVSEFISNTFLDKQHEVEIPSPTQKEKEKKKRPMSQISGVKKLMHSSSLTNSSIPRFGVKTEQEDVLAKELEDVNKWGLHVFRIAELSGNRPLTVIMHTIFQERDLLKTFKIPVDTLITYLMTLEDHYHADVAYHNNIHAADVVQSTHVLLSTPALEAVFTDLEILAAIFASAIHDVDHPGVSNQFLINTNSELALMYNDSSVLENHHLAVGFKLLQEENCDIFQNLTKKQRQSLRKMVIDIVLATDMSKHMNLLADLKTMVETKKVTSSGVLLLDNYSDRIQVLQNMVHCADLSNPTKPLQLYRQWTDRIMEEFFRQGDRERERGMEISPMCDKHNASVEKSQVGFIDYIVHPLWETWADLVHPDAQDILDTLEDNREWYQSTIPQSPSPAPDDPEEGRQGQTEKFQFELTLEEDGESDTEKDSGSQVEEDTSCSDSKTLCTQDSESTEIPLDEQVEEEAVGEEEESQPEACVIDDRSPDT

Regarding `CCc1ncc(Cc2ccc3cccc(NC(=O)C(N)=O)c3n2)c2cc(OC)c(OC)cc12` [Compound 93, N^1-(2-((1-ethyl-6,7-dimethoxyisoquinolin-4-yl)methyl)quinolin-8-yl)oxalamide], on PDE4D3, the IC50 – broadly, the concentration needed to halve the response being measured – was determined as 0.398 µM.
On to `COc1cc2c(Cc3cnc4ccccc4c3)cncc2cc1O` [Compound 30, 6-methoxy-4-(quinolin-3-ylmethyl)isoquinolin-7-ol dihydrochloride], for which the IC50 at PDE10A is greater than 10 µM.
The same measure, in the same setting: under `COc1cc2c(Cc3cnc4ccccc4c3)cnc(C3CCCCC3)c2cc1OC` [Compound 71, 3-((1-cyclohexyl-6,7-dimethoxyisoquinolin-4-yl)methyl)quinoline dihydrochloride] stands greater than 10 µM; under `COc1cc2cncc(Cc3cnc4ccccc4c3)c2cc1O` [Compound 29, 7-methoxy-4-(quinolin-3-ylmethyl)isoquinolin-6-ol dihydrochloride], greater than 10 µM.
On to `CCCc1ncc(Cc2cnc3ccc(O)c(C(F)(F)F)c3c2)c2cc(OC)c(OC)cc12` [Compound 162, 3-((6,7-dimethoxy-1-propylisoquinolin-4-yl)methyl)-5-(trifluoromethyl)quinolin-6-ol], for which, at PDE4D3, half-maximal inhibition (IC50) was put at 0.232 µM.
For the molecule `COCc1ncc(Cc2cnc3ccc(O)c(C(F)(F)F)c3c2)c2cc(OC)c(OC)cc12` [Compound 169, 3-((6,7-dimethoxy-1-(methoxymethyl)isoquinolin-4-yl)methyl)-5-(trifluoromethyl)quinolin-6-ol], at PDE4D3, half-maximal inhibition (IC50) required 0.194 µM.
The molecule `CCc1ncc(Cc2ccc3cccc(O)c3n2)c2cc(OC)c(OC)cc12` [Compound 83, 2-((1-ethyl-6,7-dimethoxyisoquinolin-4-yl)methyl)quinolin-8-ol] gave a half-inhibitory concentration (IC50) on PDE4D3 of 0.439 µM.
